Measured values published in patent publication US20130177546A1, “METHOD FOR ENHANCING EFFICACY AND SELECTIVITY OF CANCER CELL KILLING BY DNA DAMAGING AGENTS” (MAINE INSTITUTE FOR HUMAN GENETICS AND HEALTH, priority 2011, published 2013).

What was measured:
Format in all cases: cell-based
[1] = test system: SK-Br-3 (p53-mutant) cells; test: Clonogenic survival assay after DNA damage, SK-Br-3 cells expressing Arm1 or control shRNA; conditions: for cells surviving: 0.0025% MMS; for survival: 0.5 mM DOX
Protocol: (§1) MCF7 and SK-Br-3 cells were obtained from ATCC and maintained in DMEM or McCoys 5A supplemented with 10% FBS and antibiotics at 37° C., 5% CO2. A human Flag-tagged Arm1, Rev1, and p21 expression construct (Origene) were transiently transfected into SK-Br-3 cells with Fugene 6 (Roche) and extracts generated after 24 h. Lentiviral shRNA particles were obtained from Open Biosystems and stably expressing clones selected with puromycin and confirmed by GFP expression and Q-PCR (FIG. 10). […] Surviving colonies were stained with methylene blue and counted 2 weeks after treatments.
(§2) The results from this example are shown in FIG. 3. a, Arm1 promotes PCNA methyl esterification following DNA damage. PCNA was analyzed by 2D-PAGE immunoblotting in SK-Br-3 and MCF7 cells expressing Arm1 or non-targeting (control) shRNA in the absence of DNA damage or 4 h following Dox treatment or UV irradiation. b, PCNA-dependent methyltransferase activities are alter in shRNA expressing SK-Br-3 and MCF7 cells. WCE were assayed for PCNA-dependent carboxyl methyltransferase activity in the presence of His-PCNA ([…]) and average activities shown (±S.E.M.). Significance was determined using a two-tailed t-test. c, DNA damage sensitivity in Arm1 knockdown cells is related to p53 status. MCF7 (p53 wild-type) and SK-Br-3 (p53-mutant) cells were exposed to increasing levels of Dox and UV and survival determined by clonogenic survival. Average results from three independent experiments are presented ±SD. d, Arm1 knockdown promotes DNA repair. DNA repair rates were determined in shRNA expressing SK-Br-3 and MCF7 cells using host cell reactivation assay. Cells were transfected with UV-irradiated reporter plasmids and average repair rates were determined after 24 h. Average results from independent experiments are presented (±S.E.M.). Significance was determined with a two-tailed t-test.
In addition to PCNA modification in knock-down cells, we examined cell survival following DNA damage (FIG. 4b). […] In MCF7 cells with knocked-down Arm1 expression 47% of cells survived 0.5 mM DOX compared to 15% survival in the control cells (FIG. 4b). Similar results were consistently observed in response to UV with 39% of the Arm1 knock-down cells surviving 25 J/m^2 compared to 19% in the control. […] Additionally, because ˜50% of tumours harbour p53 mutations and knock-down of Arm1 expression in p53-mutant breast tumours appeared to sensitize the cells to DNA damage, inhibition of Arm1 may ultimately allow us to more effectively target tumour cells.

[2] = test system: MCF7 (p53 wild-type) cells; test: Clonogenic survival assay after DNA damage, MCF7 cells expressing Arm1 or control shRNA
Protocol: as §1, §2
In addition to PCNA modification in knock-down cells, we examined cell survival following DNA damage (FIG. 4b). […]

p21^WAF1/CIP1 = test: p21 expression in Dox-treated MCF7 cells (SDS-PAGE, immunoblot); conditions: MCF7 cells following Dox treatment
Protocol: The results from this example are shown in FIG. 2. a, Doxorubicin (Dox) promotes PCNA methyl esterification in MCF7 cells. Whole cell extracts (WCE) from cultures treated with Dox ([…]) were resolved by 2D-PAGE followed by PCNA immunoblotting (IB). The basic-shifted PCNA isoform (ME-PCNA) is identified with an arrow. b, PCNA-dependent methyltransferase activity is altered following Dox treatment. Dox treated MCF7 WCE were assayed for PCNA-dependent activity in triplicate using the vapour diffusion assay, and average activities are presented ±S.E.M. Significance was determined using a two-tailed t-test. c, Dox induces p21 expression in MCF7 cells. Extracts were separated by SDS-PAGE and immunoblotted for p21^Waf1/Cip1. d, p21 binding promotes PCNA methyl esterification. Untreated MCF7 extracts were incubated with GST, GST-p21 (full-length), and GST-p21(PIP) proteins bound to glutathione Sepharose for 2 h at 4° C. prior to 2D-PAGE and PCNA immunoblotting. e The p21-induced basic shift is a result of PCNA methyl esterification. p21(PIP) peptide was covalently coupled to CH-Sepharose and used to affinity purify PCNA from MCF7 whole cell extracts. Purified fractions were separated by 2D-PAGE and stained with colloidal Coomassie blue. Spots were excised from the gel, digested with trypsin, and analyzed by LC-MS/MS. […]

SMILES | cells surviving ([1]; SK-Br-3 Arm1 knock-down cells) | cells surviving ([1]; SK-Br-3 control cells) | survival of Arm1 knock-down cells compared to control cells ([2]; MCF7 Arm1 knock-down cells, response to MMS) | survival ([1]; SK-Br-3 cells with knock-down of Arm1 expression) | survival ([1]; SK-Br-3 control cells) | cells survived ([2]; MCF7 cells with knocked-down Arm1 expression, 0.5 mM DOX) | survival ([2]; MCF7 control cells, 0.5 mM DOX) | increased expression of p21^WAF1/CIP1 (p21^WAF1/CIP1)
COS(C)(=O)=O [MMS] | 4% | 12% | enhanced survival |  |  |  |  | 
COc1cccc2c1C(=O)c1c(O)c3c(c(O)c1C2=O)C[C@@](O)(C(=O)CO)C[C@@H]3O[C@H]1C[C@H](N)[C@H](O)[C@H](C)O1 [DOX, doxorubicin] |  |  |  | 3% | 18% | 47% | 15% | > 27 fold
